Earlier results as cited in patent US9750672B1, “Aloe derived mineral supplement” (AL Global Inc., priority 2013, dated 2017).

Tests used:
[1] = magnesium load 25 mmol; for increment in urinary magnesium during 4 hours post-load: p<0.05; for increment in urinary magnesium during second 2 hours post-load: p less than 0.05

Compound | increment in urinary magnesium during 4 hours post-load [1] | increment in urinary magnesium during second 2 hours post-load [1] | solubility in simulated peak acid secretion (24.2 mEq hydrochloric acid/300 ml) | solubility in water (water)
[O]=[Mg] [Magnesium oxide] | 0.006 mg/mg creatinine | 0.008 mg/mg creatinine | 43% | virtually insoluble
Magnesium citrate | 0.22 mg/mg creatinine | 0.035 mg/mg creatinine |  | 
